Data reported in patent publication US7799809B2, “Carboxamide compounds and their use as calpain inhibitors” (Abbott GmbH & Co. KG, priority 2006, dated 2010).

biological target: T1, cathepsin S (Homo sapiens, UniProt P25774); assay: Cathepsin S enzyme inhibition in vitro (kinetic fluorescence assay); format: biochemical; details: recombinant human cathepsin S vs calpain I
T1 construct: purchased Calbiochem 219343; host or cells: E. coli
Experimental: (§1) The following solutions and buffers were employed: • HBS (for 40 ml): 800 μl M HEPES; 2.16 ml 100 mM KCl; 4.8 ml 1M NaCl; 3.59 ml 5% glucose; 60 μl μM MgSO4; 400 μl 100 mM Na pyruvate, 28.19 ml water; pH 7.2-7.5. • lysis buffer (for 20 ml): 400 μl M Tris pH 8.2; 2.74 ml 1M NaCl; 520 μl 0.5M EDTA; 2 ml 10% triton X-100; 0.8 ml (=1:25) CompletePlus (1 tablet/2 ml H2O); 200 μl 100 mM Pefabloc; 13.34 ml water, pH 8.2. • TBST (10×) (for 1 l): 100 mM Tris (12.1 g); 1.5M NaCl (87 g); 1% Tween 20 (10 g), adjusted to pH 8. I Enzyme Inhibition In Vitro: • Testing for blockade of the corresponding enzymic activities was carried out by means of kinetic fluorescence assays (excitation 390 nm, emission 460 nm). • Apparent Ki values were calculated from the experimentally determined IC50 values by the Cheng-Prussoff relation assuming a reversible competitive enzyme inhibition. The Km values of the substrates used under the assay conditions indicated above were: 90 μM (Z-Phe-Arg-AMC, cathepsin B), 10 μM (Z-Gly-Pro-Arg-AMC, cathepsin K), 2 μM (Z-Phe-Arg-AMC, cathepsin L), and 30 μM (Z-Val-Val-Arg-AMC, cathepsin S). • The indicated Ki values are averages of the inhibition constants calculated on the basis of 2 to 4 independent dose-effect plots.
(§2) The following assays were used: • 1. Calpain I: • 20 nM calpain-I—isolated from human erythrocytes (Calbiochem #208713), 100 μM Suc-Leu-Tyr-AMC (Bachem #1-1355) as substrate in buffer with 62 mM imidazole, 0.3 mM CaCl2, 0.10% CHAPS, 0.05% BSA, 1 mM DTT at pH 7.3 and room temperature. • 2. Cathepsin B: • 0.25 nM cathepsin B—isolated from human liver (Calbiochem #219362), 100 μM Z-Phe-Arg-AMC (Bachem #I-1160) as substrate 50 mM MES, 2 mM EDTA, 0.05% Brij 35, 2.5 mM L-cysteine, pH 6.0, room temperature. • 3. Cathepsin K: • 3 nM cathepsin K—activated from recombinant human procathepsin K from E. coli (Calbiochem #342001), 10 μM Z-Gly-Pro-Arg-AMC (Biomol #P-142) as substrate in 50 mM MES, 2 mM EDTA, 0.05% Brij 35, 2.5 mM L-cysteine, pH 6.0, room temperature. • 4. Cathepsin L: • 1 nM cathepsin L—isolated from human liver (Calbiochem #219402), 2 μM Z-Phe-Arg-AMC (Bachem #1-1160) as substrate in 50 mM MES, 2 mM EDTA, 0.05% Brij 35, 2.5 mM L-cysteine, pH 6.0, room temperature. • 5. Cathepsin S: • 0.5 nM recombinant human cathepsin S from E. coli (Calbiochem #219343), 20 μM Z-Val-Val-Arg-AMC (Bachem #1-1540) as substrate in 50 mM MES, 2 mM EDTA, 0.05% Brij 35, 2.5 mM L-cysteine, pH 6.0, room temperature. • The results of the in vitro determination are indicated in Table 1. The following abbreviations are used in Table 1: • The “Calpain activity” column, ++ stands for a calpain Ki (Ki(calpain)) of ≦40 nM and + means: 40 nM<Ki(Calpain)≦100 nM. • The “Sel. cat. B” column indicates the Ki(cathepsin B)/Ki(calpain) ratio. In this connection, ++ means a Ki(cathepsin B)/Ki(calpain) ratio of ≧30 and + means 10≦Ki(cathepsin B)/Ki(calpain)<30. • The “Sel. cat. K” column indicates the Ki(cathepsin K)/Ki(calpain) ratio. In this connection, ++ means a Ki(cathepsin K)/Ki(calpain) ratio of ≧30 and + means 10≦Ki(cathepsin K)/Ki(calpain)<30. • The “Sel. cat. L” column indicates the Ki(cathepsin L)/Ki(calpain) ratio. In this connection, ++ means a Ki(cathepsin L)/Ki(calpain) ratio of ≧50 and + means 30≦Ki(cathepsin L)/Ki(calpain)<50. • The “Sel. cat. S” column indicates the Ki(cathepsin S)/Ki(calpain) ratio. In this connection, ++ means a Ki(cathepsin S)/Ki(calpain) ratio of ≧100 and + means 50≦Ki(cathepsin S)/Ki(calpain)<100.

T1 sequence (P25774 115-331): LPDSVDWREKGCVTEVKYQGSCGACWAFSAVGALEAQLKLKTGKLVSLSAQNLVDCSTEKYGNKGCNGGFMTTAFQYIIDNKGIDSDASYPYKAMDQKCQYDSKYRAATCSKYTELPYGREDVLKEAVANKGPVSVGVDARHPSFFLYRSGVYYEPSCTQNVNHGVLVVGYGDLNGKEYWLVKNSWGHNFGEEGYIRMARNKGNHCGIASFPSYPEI

| SMILES | Sel cat. S: Ki(cathepsin S)/Ki(calpain) ratio |
| --- | --- |
| CCCCC(NC(=O)c1cccnc1-n1ccc(-c2ccccc2)n1)C(=O)C(N)=O (stereo not drawn) [Example 6, N-{1-[Amino(oxo)acetyl]pentyl}-2-(3-phenyl-1H-pyrazol-1-yl)nicotinamide] | + (+ means 50≦Ki(cathepsin S)/Ki(calpain)<100) |
| NC(=O)C(=O)C(Cc1ccccc1)NC(=O)c1cccnc1-n1cnc(-c2ccc(N3CCOCC3)cc2)c1 (stereo not drawn) [Example 14, N-(3-Amino-1-benzyl-2,3-dioxopropyl)-2-[4-(4-morpholin-4-ylphenyl)-1H-imidazol-1-yl]nicotinamide] | ++ (++ means a Ki(cathepsin S)/Ki(calpain) ratio of ≧100) |
| CCN(CC)c1ccc(-c2ccn(-c3ncccc3C(=O)NC(Cc3ccccc3)C(=O)C(N)=O)n2)cc1 (stereo not drawn) [Example 42, N-(3-Amino-1-benzyl-2,3-dioxopropyl)-2-{3-[4-(diethylamino)phenyl]-1H-pyrazol-1-yl}nicotinamide] | ++ (++ means a Ki(cathepsin S)/Ki(calpain) ratio of ≧100) |
| CCN(CC)Cc1ccc(-c2ccn(-c3ncccc3C(=O)NC(Cc3ccccc3)C(=O)C(N)=O)n2)cc1.Cl (stereo not drawn) [Example 43, N-(3-Amino-1-benzyl-2,3-dioxopropyl)-2-(3-{4-[(diethylamino)methyl]phenyl}-1H-pyrazol-1-yl)nicotinamide hydrochloride] | ++ (++ means a Ki(cathepsin S)/Ki(calpain) ratio of ≧100) |
| CCCCC(NC(=O)c1cccnc1-n1ccc(-c2ccc(CN(CC)CC)cc2)n1)C(=O)C(N)=O (stereo not drawn) [Example 44, N-{1-[Amino(oxo)acetyl]pentyl}-2-(3-{4-[(diethylamino)methyl]phenyl}-1H-pyrazol-1-yl)nicotinamide] | + (+ means 50≦Ki(cathepsin S)/Ki(calpain)<100) |
| CCCCC(NC(=O)c1cccnc1-n1ccc(-c2ccc(CN3CCOCC3)cc2)n1)C(=O)C(N)=O (stereo not drawn) [Example 45, N-{1-[Amino(oxo)acetyl]pentyl}-2-{3-[4-(morpholin-4-ylmethyl)phenyl]-1H-pyrazol-1-yl}nicotinamide] | + (+ means 50≦Ki(cathepsin S)/Ki(calpain)<100) |
| NC(=O)C(=O)C(Cc1ccccc1)NC(=O)c1cccnc1-n1ccc(-c2ccc(CN3CCOCC3)cc2)n1 (stereo not drawn) [Example 46, N-(3-Amino-1-benzyl-2,3-dioxopropyl)-2-{3-[4-(morpholin-4-ylmethyl)phenyl]-1H-pyrazol-1-yl}nicotinamide] | ++ (++ means a Ki(cathepsin S)/Ki(calpain) ratio of ≧100) |
| CCCCC(NC(=O)c1cccnc1-n1ccc(-c2ccc(N(CC)CC)cc2)n1)C(=O)C(N)=O (stereo not drawn) [Example 47, N-{1-[Amino(oxo)acetyl]pentyl}-2-{3-[4-(diethylamino)phenyl]-1H-pyrazol-1-yl}nicotinamide] | ++ (++ means a Ki(cathepsin S)/Ki(calpain) ratio of ≧100) |
| Cl.NC(=O)C(=O)C(Cc1ccccc1)NC(=O)c1cccnc1-n1ccc(-c2cccc(CN3CCOCC3)c2)n1 (stereo not drawn) [Example 52, N-(3-Amino-1-benzyl-2,3-dioxopropyl)-2-{3-[3-(morpholin-4-ylmethyl)phenyl]-1H-pyrazol-1-yl}nicotinamide hydrochloride] | ++ (++ means a Ki(cathepsin S)/Ki(calpain) ratio of ≧100) |
| NC(=O)C(=O)C(Cc1ccccc1)NC(=O)c1cccnc1-n1ccc(-c2ccncc2)n1 (stereo not drawn) [Example 65, N-(3-Amino-1-benzyl-2,3-dioxopropyl)-2-(3-pyridin-4-yl-1H-pyrazol-1-yl)nicotinamide] | ++ (++ means a Ki(cathepsin S)/Ki(calpain) ratio of ≧100) |
| NC(=O)C(=O)C(Cc1ccccc1)NC(=O)c1cccnc1-n1ccc(-c2ccc(-n3ccnc3)cc2)n1 (stereo not drawn) [Example 101, N-[3-Amino-2,3-dioxo-1-(phenylmethyl)propyl]-2-{3-[4-(1H-imidazol-1-yl)phenyl]-1H-pyrazol-1-yl}pyridine-3-carboxamide] | ++ (++ means a Ki(cathepsin S)/Ki(calpain) ratio of ≧100) |
| NC(=O)C(=O)C(Cc1ccccc1)NC(=O)c1cccnc1-n1cc(-c2ccccc2F)cn1 (stereo not drawn) [Example 104, N-[3-Amino-2,3-dioxo-1-(phenylmethyl)propyl]-2-[4-(2-fluorophenyl)-1H-pyrazol-1-yl]pyridine-3-carboxamide] | + (+ means 50≦Ki(cathepsin S)/Ki(calpain)<100) |
| NC(=O)C(=O)C(Cc1ccccc1)NC(=O)c1cccnc1-n1cc(CCN2CCOCC2)c(-c2ccc(F)cc2)n1 (stereo not drawn) [Example 165, N-[3-Amino-2,3-dioxo-1-(phenylmethyl)propyl]-2-[3-(4-fluorophenyl)-4-(2-morpholin-4-ylethyl)-1H-pyrazol-1-yl]pyridine-3-carboxamide] | ++ (++ means a Ki(cathepsin S)/Ki(calpain) ratio of ≧100) |
| CN(C)Cc1cn(-c2ncccc2C(=O)NC(Cc2ccccc2)C(=O)C(N)=O)nc1-c1cccc(C(F)(F)F)c1 (stereo not drawn) [Example 176, N-[3-Amino-2,3-dioxo-1-(phenylmethyl)propyl]-2-{4-[(dimethylamino)methyl]-3-[3-(trifluoromethyl)phenyl]-1H-pyrazol-1-yl}pyridine-3-carboxamide] | ++ (++ means a Ki(cathepsin S)/Ki(calpain) ratio of ≧100) |
| NC(=O)C(=O)C(Cc1ccccc1)NC(=O)c1cccnc1-n1cc(CN2CCOCC2)c(-c2cccc(C(F)(F)F)c2)n1 (stereo not drawn) [Example 177, N-[3-Amino-2,3-dioxo-1-(phenylmethyl)propyl]-2-{4-(morpholin-4-ylmethyl)-3-[3-(trifluoromethyl)phenyl]-1H-pyrazol-1-yl}pyridine-3-carboxamide] | ++ (++ means a Ki(cathepsin S)/Ki(calpain) ratio of ≧100) |
| NC(=O)C(=O)C(Cc1ccccc1)NC(=O)c1cccnc1-n1cc(CN2CCCC2)c(-c2cccc(C(F)(F)F)c2)n1 (stereo not drawn) [Example 178, N-[3-Amino-2,3-dioxo-1-(phenylmethyl)propyl]-2-{4-(pyrrolidin-1-ylmethyl)-3-[3-(trifluoromethyl)phenyl]-1H-pyrazol-1-yl}pyridine-3-carboxamide] | ++ (++ means a Ki(cathepsin S)/Ki(calpain) ratio of ≧100) |

biological target: T2, cathepsin L (Homo sapiens, UniProt P07711); assay: Cathepsin L enzyme inhibition in vitro (kinetic fluorescence assay); format: biochemical; details: cathepsin L isolated from human liver vs calpain I
T2 construct: cathepsin L—isolated from human liver (Calbiochem #219402); purchased Calbiochem 219402; host or cells: human liver (tissue-derived)
Experimental: as §1, §2

T2 sequence (P07711 114-333): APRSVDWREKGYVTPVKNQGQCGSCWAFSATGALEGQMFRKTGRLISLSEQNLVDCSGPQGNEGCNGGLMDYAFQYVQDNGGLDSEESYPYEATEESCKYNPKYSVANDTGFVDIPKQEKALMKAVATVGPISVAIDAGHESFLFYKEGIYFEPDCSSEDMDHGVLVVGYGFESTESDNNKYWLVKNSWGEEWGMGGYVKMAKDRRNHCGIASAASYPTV

| SMILES | Sel cat. L: Ki(cathepsin L)/Ki(calpain) ratio |
| --- | --- |
| CCCCC(NC(=O)c1cccnc1-n1cnc(-c2ccccc2)c1)C(=O)C(N)=O (stereo not drawn) [Example 2, N-{1-[Amino(oxo)acetyl]pentyl}-2-(4-phenyl-1H-imidazol-1-yl)nicotinamide] | ++ (++ means a Ki(cathepsin L)/Ki(calpain) ratio of ≧50) |
| CCCCC(NC(=O)c1cc(Cl)cnc1-n1cnc(-c2ccccc2)c1)C(=O)C(N)=O.Cl (stereo not drawn) [Example 24, N-{1-[Amino(oxo)acetyl]pentyl}-5-chloro-2-(4-phenyl-1H-imidazol-1-yl)nicotinamide hydrochloride] | + (+ means 30≦Ki(cathepsin L)/Ki(calpain)<50) |
